Data on four compounds can be found in ChEMBL document CHEMBL1201862, “PubChem BioAssay data set” (2004).

The nature of experiment [1]: Luminescence Cell-Based Dose Retest to Confirm Inhibitors of Cancer Stem Cells. [Related pubchem assays (depositor defined):AID2717, AID2721]. The experiment is classed as functional. As to conditions: Homo sapiens.
Experiment [2] has as its target T1, Ubiquitin-conjugating enzyme E2 N (Homo sapiens, UniProt P61088).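 Further: Dose-response confirmation in a TR-FRET assay detecting UBC13-driven polyubiquitin chain formation, inhibition measured.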
T1 sequence (P61088 whole entry): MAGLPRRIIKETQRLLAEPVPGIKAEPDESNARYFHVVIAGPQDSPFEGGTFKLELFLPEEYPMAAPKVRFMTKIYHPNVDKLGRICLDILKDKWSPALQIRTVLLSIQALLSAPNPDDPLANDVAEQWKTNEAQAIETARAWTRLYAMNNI
The experiment is classed as functional.

Experiment [3] concerns the target Integrin alpha-4 (Homo sapiens, UniProt P13612). The experiment can be described thus: allosteric modulators of alpha4 integrin VLA-4 – cell-based, LIBS antibody binding, flow cytometry, SAR follow-up (AID 488791). The experiment is classed as functional. In general terms: In flow cytometry, cells or beads pass a laser one at a time.
For experiment [4], the target named is Melanocortin receptor 4 (Homo sapiens, UniProt P32245). Type of experiment: functional, cell-based.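 Further: Cell-based assay with luminescence read-out, confirmatory dose-response testing for agonist activity of biased ligands at MC4R; human U2OS cells with tagged receptor and beta-arrestin; potency of agonists that increase receptor coupling to beta-arrestin.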
Melanocortin receptor 4, sequence (P32245 whole entry): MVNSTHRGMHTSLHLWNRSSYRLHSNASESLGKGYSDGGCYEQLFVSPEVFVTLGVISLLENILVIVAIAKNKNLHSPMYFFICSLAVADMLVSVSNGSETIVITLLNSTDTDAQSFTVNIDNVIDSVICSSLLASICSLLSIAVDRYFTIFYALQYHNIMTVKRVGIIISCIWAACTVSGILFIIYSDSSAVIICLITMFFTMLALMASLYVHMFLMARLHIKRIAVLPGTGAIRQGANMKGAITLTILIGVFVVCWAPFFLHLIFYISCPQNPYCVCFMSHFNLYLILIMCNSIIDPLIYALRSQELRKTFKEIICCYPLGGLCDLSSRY
The nature of experiment [5]: A549 cell cytotoxicity, dose response, cytotoxicity control, plate reader, cherry-pick, antagonist series (AID 743412). Type of experiment: functional, cell-based.
Experiment [6] is described as follows: toxicity toward HepG2 liver cells – cell-based, plate reader, cherry-pick, antagonist series, cytotoxicity control, dose response (AID 743416). Type of experiment: functional.
Experiment [7] is described as follows: blockers of bursicon-stimulated LGR2 cAMP reporter – cell-based, HEK293, CRE-luciferase reporter, cherry pick, set 2, dose response (AID 743343).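 Further: transfected cells were stimulated with diluted bursicon conditioned medium after compound addition.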 The experiment is classed as functional. On the technique in general: In a reporter assay the amount or activity of a reporter protein is the signal.
The nature of experiment [8]: blockade of melanocortin 4 receptor signaling – cell-based, plate reader, cherry pick, counter-screen for LGR2 antagonist project, dose response (AID 743444).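 Further: transfected HEK 293 cells stimulated with alpha-MSH peptide; potency of inhibitors of the alpha-MSH evoked signal.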 The experiment is classed as functional. For orientation: The purpose of a counterscreen is to sort out artefacts and off-target activity.
The nature of experiment [9]: viability loss in HEK293 cells – cell-based, plate reader, cherry-picked samples, cytotoxicity control, dose response (AID 743446). Type of experiment: functional.
Experiment [10] concerns the target Tyrosine-protein phosphatase non-receptor type 7 (Homo sapiens, UniProt P35236). The experiment is described as follows: SAR analysis of chemical inhibitors of HePTP using a Fluorescent assay - Set 2. [Related pubchem assays (depositor defined):AID1059, AID1077, AID1661, AID2085, AID521]. The experiment is classed as functional.
The target of experiment [11] is Dual specificity protein phosphatase 3 (Homo sapiens, UniProt P51452). The experiment is described as follows: SAR VHR1 Fluorescent Assay for In Vitro dose response studies Set 2. [Related pubchem assays (depositor defined):AID1654, AID1661, AID1878]. The experiment is classed as functional.
Dual specificity protein phosphatase 3, sequence (P51452 whole entry): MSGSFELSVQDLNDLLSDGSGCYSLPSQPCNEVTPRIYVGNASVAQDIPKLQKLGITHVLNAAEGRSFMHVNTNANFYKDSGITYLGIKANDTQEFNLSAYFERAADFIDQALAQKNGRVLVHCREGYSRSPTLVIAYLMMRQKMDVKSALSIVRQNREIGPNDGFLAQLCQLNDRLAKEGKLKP
In experiment [12] the target is Eukaryotic translation initiation factor 4H (Homo sapiens, UniProt Q15056). The experiment is described as follows: eIF4H binding inhibition – biochemical, uHTS, fluorescence polarization, translation initiation inhibitor project, primary screen (AID 2012).
The target of experiment [13] is T2, Voltage-gated N-type calcium channel alpha-1B subunit/Amyloid beta A4 precursor protein-binding family A member 1 (Homo sapiens, UniProt Q00975+Q02410). The experiment is classed as protein assay.
T2 sequence (Q00975 whole entry): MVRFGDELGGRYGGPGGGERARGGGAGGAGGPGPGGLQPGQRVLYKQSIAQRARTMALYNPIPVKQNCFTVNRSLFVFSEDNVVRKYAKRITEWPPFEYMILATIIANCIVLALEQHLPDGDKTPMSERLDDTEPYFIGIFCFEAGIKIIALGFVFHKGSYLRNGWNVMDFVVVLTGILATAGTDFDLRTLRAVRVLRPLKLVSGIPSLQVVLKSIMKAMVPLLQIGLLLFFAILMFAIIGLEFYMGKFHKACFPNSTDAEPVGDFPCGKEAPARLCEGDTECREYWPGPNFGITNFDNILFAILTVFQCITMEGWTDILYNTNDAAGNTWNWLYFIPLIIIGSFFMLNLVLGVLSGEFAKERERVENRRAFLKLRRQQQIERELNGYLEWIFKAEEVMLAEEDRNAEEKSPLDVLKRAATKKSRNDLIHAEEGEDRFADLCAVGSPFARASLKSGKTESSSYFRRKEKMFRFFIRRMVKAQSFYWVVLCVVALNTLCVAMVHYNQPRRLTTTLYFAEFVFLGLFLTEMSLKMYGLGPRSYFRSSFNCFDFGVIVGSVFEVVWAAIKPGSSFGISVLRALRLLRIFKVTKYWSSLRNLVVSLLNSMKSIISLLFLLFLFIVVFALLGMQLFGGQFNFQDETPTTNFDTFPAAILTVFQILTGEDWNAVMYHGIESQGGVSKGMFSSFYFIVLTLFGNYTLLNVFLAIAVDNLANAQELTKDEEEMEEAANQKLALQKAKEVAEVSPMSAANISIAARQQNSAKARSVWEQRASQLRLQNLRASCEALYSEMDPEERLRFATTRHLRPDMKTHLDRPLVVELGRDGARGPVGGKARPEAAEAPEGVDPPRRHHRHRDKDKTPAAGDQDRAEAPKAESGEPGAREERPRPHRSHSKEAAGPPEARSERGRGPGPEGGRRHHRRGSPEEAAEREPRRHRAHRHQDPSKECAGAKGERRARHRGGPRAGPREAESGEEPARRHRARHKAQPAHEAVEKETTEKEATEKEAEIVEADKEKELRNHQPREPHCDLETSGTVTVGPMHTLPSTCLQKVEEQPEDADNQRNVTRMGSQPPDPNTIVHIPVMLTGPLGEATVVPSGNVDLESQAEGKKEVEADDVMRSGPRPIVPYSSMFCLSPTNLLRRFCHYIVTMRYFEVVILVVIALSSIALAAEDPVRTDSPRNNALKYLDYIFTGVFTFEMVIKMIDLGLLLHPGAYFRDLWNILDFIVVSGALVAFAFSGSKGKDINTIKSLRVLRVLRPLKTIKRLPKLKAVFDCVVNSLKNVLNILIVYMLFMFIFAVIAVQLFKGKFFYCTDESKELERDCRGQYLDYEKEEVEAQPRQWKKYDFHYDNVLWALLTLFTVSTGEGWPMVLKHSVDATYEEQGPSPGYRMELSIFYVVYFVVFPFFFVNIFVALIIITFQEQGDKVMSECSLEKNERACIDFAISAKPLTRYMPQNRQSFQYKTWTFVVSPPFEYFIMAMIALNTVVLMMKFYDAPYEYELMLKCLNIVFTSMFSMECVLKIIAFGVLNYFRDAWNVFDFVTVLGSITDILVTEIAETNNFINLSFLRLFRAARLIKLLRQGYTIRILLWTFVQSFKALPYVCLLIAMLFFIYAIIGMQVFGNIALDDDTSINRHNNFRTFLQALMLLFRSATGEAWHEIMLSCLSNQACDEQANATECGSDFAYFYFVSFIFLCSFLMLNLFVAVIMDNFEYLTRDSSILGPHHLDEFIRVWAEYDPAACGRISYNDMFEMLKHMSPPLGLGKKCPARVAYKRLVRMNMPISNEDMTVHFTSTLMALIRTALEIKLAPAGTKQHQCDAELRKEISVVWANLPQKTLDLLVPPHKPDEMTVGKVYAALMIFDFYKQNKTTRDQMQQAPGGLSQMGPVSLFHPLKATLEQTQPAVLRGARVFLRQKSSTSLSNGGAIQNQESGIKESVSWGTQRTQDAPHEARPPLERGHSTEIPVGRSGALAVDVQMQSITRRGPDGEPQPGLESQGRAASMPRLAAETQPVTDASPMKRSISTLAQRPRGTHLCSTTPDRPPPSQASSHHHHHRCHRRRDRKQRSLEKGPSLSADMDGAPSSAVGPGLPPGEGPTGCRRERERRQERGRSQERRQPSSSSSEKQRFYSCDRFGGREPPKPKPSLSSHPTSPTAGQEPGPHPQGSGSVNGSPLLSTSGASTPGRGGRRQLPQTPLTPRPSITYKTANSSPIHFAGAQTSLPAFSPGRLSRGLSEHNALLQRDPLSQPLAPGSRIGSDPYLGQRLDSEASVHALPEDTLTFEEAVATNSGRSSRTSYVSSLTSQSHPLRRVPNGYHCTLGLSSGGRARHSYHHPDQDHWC
T2 sequence (Q02410 whole entry): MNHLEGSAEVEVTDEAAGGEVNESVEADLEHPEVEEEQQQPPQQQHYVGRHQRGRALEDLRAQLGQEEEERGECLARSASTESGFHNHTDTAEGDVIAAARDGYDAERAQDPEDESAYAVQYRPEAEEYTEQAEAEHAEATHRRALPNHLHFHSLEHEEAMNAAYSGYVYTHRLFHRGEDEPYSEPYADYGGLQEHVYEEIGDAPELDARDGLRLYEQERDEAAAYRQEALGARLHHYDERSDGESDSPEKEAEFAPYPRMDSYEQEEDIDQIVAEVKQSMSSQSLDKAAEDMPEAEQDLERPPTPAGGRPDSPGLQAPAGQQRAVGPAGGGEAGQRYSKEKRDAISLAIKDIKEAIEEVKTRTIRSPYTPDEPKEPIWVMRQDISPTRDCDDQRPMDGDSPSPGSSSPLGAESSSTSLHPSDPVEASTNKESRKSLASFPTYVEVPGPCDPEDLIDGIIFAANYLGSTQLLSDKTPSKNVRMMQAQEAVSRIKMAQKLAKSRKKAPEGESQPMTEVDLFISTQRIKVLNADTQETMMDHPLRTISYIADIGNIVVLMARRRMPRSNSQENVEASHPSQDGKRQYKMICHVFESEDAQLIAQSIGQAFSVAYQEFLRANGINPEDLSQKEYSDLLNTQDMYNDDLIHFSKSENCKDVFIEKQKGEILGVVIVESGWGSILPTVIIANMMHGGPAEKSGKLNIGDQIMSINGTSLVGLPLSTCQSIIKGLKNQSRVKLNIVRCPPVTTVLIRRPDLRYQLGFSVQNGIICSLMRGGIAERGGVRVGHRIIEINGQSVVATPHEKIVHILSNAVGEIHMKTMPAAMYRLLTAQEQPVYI
Experiment [14] concerns the target T2, Voltage-gated N-type calcium channel alpha-1B subunit/Amyloid beta A4 precursor protein-binding family A member 1. The experiment is classed as protein assay. This is another data set of the same source.
Experiment [15] concerns the target Polyadenylate-binding protein 1 (Homo sapiens, UniProt P11940). The experiment is described as follows: blockers of PABP interaction with poly(A) – biochemical, fluorescence polarization, […] (AID 2014).
Experiment [16] concerns T-cell. The experiment is described as follows: loss of vesicle association with mouse CD8+ T cells – mouse 2C CD8+ T cells, flow cytometry, dose response (AID 485284). The experiment is classed as functional.

Active and inactive are the calls of the source.

Integrin alpha-4, sequence (P13612 whole entry): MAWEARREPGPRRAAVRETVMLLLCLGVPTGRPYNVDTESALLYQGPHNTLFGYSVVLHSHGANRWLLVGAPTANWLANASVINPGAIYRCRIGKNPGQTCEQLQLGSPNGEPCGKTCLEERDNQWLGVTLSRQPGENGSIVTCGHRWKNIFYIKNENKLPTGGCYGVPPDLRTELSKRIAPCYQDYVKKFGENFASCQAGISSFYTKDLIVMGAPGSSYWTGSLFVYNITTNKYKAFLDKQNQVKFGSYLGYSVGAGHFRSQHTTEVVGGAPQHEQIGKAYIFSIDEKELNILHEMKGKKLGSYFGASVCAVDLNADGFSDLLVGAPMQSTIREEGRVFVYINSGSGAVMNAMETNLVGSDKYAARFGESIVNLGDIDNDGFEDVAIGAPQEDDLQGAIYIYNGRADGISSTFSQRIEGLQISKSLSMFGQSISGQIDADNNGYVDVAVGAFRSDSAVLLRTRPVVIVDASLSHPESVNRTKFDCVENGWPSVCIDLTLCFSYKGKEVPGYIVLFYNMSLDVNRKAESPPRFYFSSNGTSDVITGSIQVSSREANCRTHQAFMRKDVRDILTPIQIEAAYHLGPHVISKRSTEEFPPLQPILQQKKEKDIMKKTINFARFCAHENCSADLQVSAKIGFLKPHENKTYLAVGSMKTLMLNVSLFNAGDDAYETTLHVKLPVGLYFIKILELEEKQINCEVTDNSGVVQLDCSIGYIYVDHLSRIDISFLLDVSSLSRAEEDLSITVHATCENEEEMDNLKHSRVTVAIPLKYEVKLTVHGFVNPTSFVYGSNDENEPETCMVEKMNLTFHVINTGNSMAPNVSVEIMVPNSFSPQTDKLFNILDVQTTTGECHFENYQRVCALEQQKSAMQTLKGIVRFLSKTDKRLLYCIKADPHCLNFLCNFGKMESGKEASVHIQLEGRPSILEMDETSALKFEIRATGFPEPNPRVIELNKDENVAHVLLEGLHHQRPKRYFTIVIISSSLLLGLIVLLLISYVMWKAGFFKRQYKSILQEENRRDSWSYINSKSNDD

As usually defined, the AC50 is the concentration giving half of the maximal activity seen. Usually IC50 stands for the concentration needed to halve the response being measured. In general, EC50 refers to the concentration at which the effect is half-maximal. Turning to `COc1cccc(-c2sc3ccccc3c2-c2ccc(OCCN(C)C)cc2)c1`, the concentration at half-maximal activity (AC50) in experiment [1] was 3.29 µM (active); in experiment [5], 7.82 µM (active); in [6] it was 8.01 µM (active); in [7] it was 13 µM (active); in [8], 11.7 µM (active); in experiment [9] it was 15.2 µM (active). In addition, the IC50 in experiment [2] is > 20 µM (inactive). For the same compound, the EC50 in experiment [3] was 29.1 µM (active); in experiment [4] it was > 3.3 µM (active).
With `CC(C)(C)c1cc(C(=S)NCc2ccc(F)c(C(F)(F)F)c2)cc(C(C)(C)C)c1`, the IC50 was 27 µM (active) in [10] and 67.4 µM (active) in experiment [11].
As for `CC(/C=C/c1ccco1)=N/NC(=O)Cc1cccs1`, the IC50 in experiment [12] is 23.6 µM (active); in experiment [13], 18.9 µM (active); in experiment [14] it was 24.6 µM (active); in experiment [15] it was > 100 µM (inactive).
For `Cc1ccc(/C=N/NC2=NC(=O)C(CC(=O)Nc3ccc(Cl)cc3)S2)o1` (stereo unspecified), the EC50 in [16] was 15.2 µM (active).
